According to PMC3974779, “Pterostilbene-Isothiocyanate Conjugate Suppresses Growth of Prostate Cancer Cells Irrespective of Androgen Receptor Status” (PLoS ONE, 2014):

Assays:
[1] = test system: LNCaP cells; assay: Cell cycle distribution by flow cytometry; assay type: cell-based, human
Description: (§1) Cell cycle distribution and Annexin V/Propidium iodide (PI) positive cells were analyzed using flow cytometry. In brief, first the cells were seeded and treated with 0, 10, 20 and 40 μM conjugate in complete medium for 24 h. This was followed by trypsinizing and fixing in 70% ethanol, and finally washing with PBS. Subsequently, the cells were treated with RNase A (50 μg/ml), stained with PI (50 μg/ml) and incubated in the dark for 30 min at room temperature and analyzed by flow cytometry for cell cycle distribution. For apoptosis, the conjugate treated cells were stained with Alexa-Fluor 488-conjugated Annexin-V using the Vybrant-Apoptosis Assay Kit from Invitrogen (USA) as per the manufacturer’s protocol. The stained cells were then analyzed by fluorescence activated cell sorting (FACS Calibur, BD Biosciences, San Jose, CA, USA) and the data were standardized using Cell Quest 3.3 software.

[2] = test system: PC-3 cells; assay: Cell cycle distribution by flow cytometry; assay type: cell-based, human; settings: PC-3, 40 μM, 24 h (control 22%)
Description: as §1

[3] = test system: caspase-3 expression in LNCaP cells; assay: Immunoblot analysis of apoptotic markers; assay type: cell-based, human; settings: highest dose (40 μM), immunoblot densitometry
Description: (§2) The whole-cell lysates were prepared as described previously in immunoprecipitation (IP) buffer containing 50 mM Tris-HCl (pH 8.0), 150 mM NaCl, 5 mM EDTA, and 1% Triton X-100. Protein aliquots of 500 μg were then incubated overnight at 4°C using 2 μg of antibody directed against AR. The Protein A-Cl Agarose beads were then added and further incubated for 6 h at 4°C. The immunoprecipitates were washed four times with the IP buffer and the immunocomplexes were recovered by boiling in SDS sample buffer. Finally the western blot was carried out using anti-AR, anti-SRC-1 and anti-GRIP-1 antibodies (Santa Cruz, CA, USA). For western blot analysis, the cell lysates were prepared after harvesting them in lysis buffer. About 40 μg of total protein was electrophoresed by 12% SDS-PAGE, and the western blotting was carried out using standard protocol. In brief, the analyzed proteins were transferred to nylon membranes. The blots were then blocked with TBST buffer (20 mM Tris-Cl, pH 7.5, 150 mM sodium chloride, 0.05% Tween-20) containing 5% skim milk powder. They were then washed with TBST buffer and incubated overnight at 4°C with the same buffer containing appropriate amounts of primary antibodies: caspase-3, Bax, Bcl-2, Akt, p-Akt, ERK, p-ERK, AR, SRC-1, GRIP-1 (1∶500) and β-actin (1∶1000). The blots were then washed and incubated with anti-rabbit secondary antibody (1∶20,000) conjugated with horseradish peroxidase (HRP). Color development was performed in the dark by using an ECL kit (Amersham, GE Healthcare, Buckinghamshire, UK). The developed blots were subjected to densitometric analysis by ImageJ 1.43 software (NIH, USA) using β-actin as internal control.

[4] = test system: caspase-3 expression in PC-3 cells; assay: Immunoblot analysis of apoptotic markers; assay type: cell-based, human; settings: PC-3, highest dose (40 μM), immunoblot densitometry
Description: as §2

[5] = biological target: T1, hAR in PC-3 cells (Homo sapiens, UniProt P10275); assay: AR transactivation luciferase assay (pSG5-hAR + pMMTV-luc); assay type: cell-based; settings: 10 nM DHT
T1 construct: full length hAR in pSG5 expression vector; expressed in transfected cells; host or cells: PC-3 (AR-negative)
T1 sequence (P10275 1-920): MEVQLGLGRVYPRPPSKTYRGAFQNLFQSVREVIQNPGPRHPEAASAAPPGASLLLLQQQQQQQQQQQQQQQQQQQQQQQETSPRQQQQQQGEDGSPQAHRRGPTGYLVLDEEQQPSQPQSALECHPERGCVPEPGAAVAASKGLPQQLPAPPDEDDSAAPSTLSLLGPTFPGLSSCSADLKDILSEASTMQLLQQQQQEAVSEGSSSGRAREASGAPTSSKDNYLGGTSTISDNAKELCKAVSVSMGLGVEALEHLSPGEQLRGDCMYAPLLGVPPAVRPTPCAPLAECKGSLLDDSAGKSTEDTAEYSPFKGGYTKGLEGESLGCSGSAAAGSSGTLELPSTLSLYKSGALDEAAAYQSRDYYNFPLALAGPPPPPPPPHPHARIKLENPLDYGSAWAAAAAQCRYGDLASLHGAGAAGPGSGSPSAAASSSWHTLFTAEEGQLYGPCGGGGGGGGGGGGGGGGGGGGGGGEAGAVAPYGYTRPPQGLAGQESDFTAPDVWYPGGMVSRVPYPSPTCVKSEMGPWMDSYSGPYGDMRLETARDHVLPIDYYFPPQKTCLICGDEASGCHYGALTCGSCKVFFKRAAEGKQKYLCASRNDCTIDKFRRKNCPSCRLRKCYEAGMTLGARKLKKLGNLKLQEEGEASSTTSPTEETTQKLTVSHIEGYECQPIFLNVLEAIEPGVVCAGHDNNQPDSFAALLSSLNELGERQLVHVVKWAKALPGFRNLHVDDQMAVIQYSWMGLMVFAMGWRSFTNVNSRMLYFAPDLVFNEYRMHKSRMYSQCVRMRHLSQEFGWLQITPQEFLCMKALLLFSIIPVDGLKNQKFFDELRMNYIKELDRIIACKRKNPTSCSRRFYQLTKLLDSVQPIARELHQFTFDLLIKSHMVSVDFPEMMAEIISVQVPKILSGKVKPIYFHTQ
Description: The LNCaP cells were grown and transiently transfected with pMMTV-neomycin-luciferase plasmid (300 ng/10^5 cells) in RPMI media supplemented with 10% FBS using polyfect transfection reagent (Qiagen, CA, USA) according to manufacturer’s instructions. Then, 24 h after transfection, the cell culture media were changed with media containing 5% charcoal-stripped FBS to reduce the contaminating steroids from the serum and incubated for an additional day before initiating the treatments. In case of PC-3 cells, they were similarly transfected, but in addition to pMMTV-neomycin-luciferase construct, they were also transfected with pSG5-hAR-puro plasmid (full length hAR in pSG5 expression vector) in the ratio of 5∶1 as indicated above. For experiments involving co-regulators, 50 ng of co-activator plasmids (25 ng each of GRIP-1 and SRC-1) along with pMMTV-neo-luc (250 ng) were transfected to LNCaP cells. To evaluate the transfection efficiency, 500 ng/105 cells of the SV40 promoter-Renilla luciferase (pRL-SV40) vector (Promega Madison, USA) were co-transfected as internal control. […] Each experimental point was performed in triplicate and varied by less than 10%. The values of luciferase for each lysates were normalized to the Renilla luciferase activity.

In the case of COc1cc(/C=C/c2ccc(O)c(/C=N/NC(N)=S)c2)cc(OC)c1 [conjugate, Pterostilbene-isothiocyanate conjugate], the “accumulation of cells in G2/M phase” value ([1]; increasing doses of conjugate, 24 h) was 16–35%, the “cells in G2/M phase” value ([1]; treated cells, 24 h (control 11%)) was 35% and the “cells arrested in G2/M phase” value [2] was “approximately 50%”. For the same molecule, the “enhancement of caspase-3 expression” value [3] was “about 8.5 folds”, the “enhancement of caspase-3 expression” value [4] was about 6 folds and the “reduction of DHT-mediated luciferase activity” value (shortened to “reduction”) ([5]; PC-3, 5 μM) was 19%. The “reduction” value ([5]; PC-3, 10 μM) was 31%, the “reduction” value ([5]; PC-3, 20 μM) was 63% and the “reduction” value ([5]; PC-3, 30 μM) was 70%. For the same molecule, the “reduction” value ([5]; PC-3, 40 μM) was 80%.
